Experimental data reported in patent publication US4259328A, “Morpholino pyridazinylhydrazones” (Richter Gedeon Vegyeszeti Gyar Rt, priority 1977, dated 1981).
Read-outs that look alike come from different tables or passages of the source.

Assays:
dopamine-β-hydroxylase = biological target: T1, dopamine-β-hydroxylase (Bos taurus, UniProt P15101); assay: Dopamine-β-hydroxylase inhibiting activity (DBH) on bovine adrenal (gland) preparations; assay type: biochemical; details: read-out: Enzyme inhibiting activity, DBH; for inhibition at 100 µM: 10^-4 mole/liter; for inhibition at 10 µM: 10^-5 mole/liter
T1 construct: from tissue; host or cells: bovine adrenal (gland) preparations
T1 sequence (P15101 1-610): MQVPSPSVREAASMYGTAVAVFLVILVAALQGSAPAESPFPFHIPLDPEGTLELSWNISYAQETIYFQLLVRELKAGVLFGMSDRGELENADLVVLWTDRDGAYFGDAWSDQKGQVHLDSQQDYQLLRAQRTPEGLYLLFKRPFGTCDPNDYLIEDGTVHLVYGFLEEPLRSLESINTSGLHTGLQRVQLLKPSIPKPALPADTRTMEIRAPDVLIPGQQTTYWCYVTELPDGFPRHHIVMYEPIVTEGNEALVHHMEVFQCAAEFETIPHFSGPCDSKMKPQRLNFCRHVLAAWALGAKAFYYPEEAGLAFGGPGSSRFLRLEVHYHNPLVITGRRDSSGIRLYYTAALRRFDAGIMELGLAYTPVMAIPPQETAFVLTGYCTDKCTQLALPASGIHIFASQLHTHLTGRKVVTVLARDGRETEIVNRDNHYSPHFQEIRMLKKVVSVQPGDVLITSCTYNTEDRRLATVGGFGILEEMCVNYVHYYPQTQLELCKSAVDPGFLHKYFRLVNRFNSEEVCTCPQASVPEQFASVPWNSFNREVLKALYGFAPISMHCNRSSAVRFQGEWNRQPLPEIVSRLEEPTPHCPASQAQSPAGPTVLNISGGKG
Description: Dopamine-β-hydroxylase inhibiting activity (DBH inhibiting activity) of the compounds according to the invention was tested on bovine adrenal (gland) preparations by a modified version of Nagatsu's method [B.B. Acta, 139 319 (1967)].
(§1) Inhibiting effect of several compounds encompassed by the formula I in comparison with some known compounds is listed in the following Table I.

[1] = tested on: spontaneous hypertensive rats (Wistar-Okamoto rats); assay: Blood pressure lowering activity, systolic blood pressure of waking spontaneous hypertensive rats, oral; assay type: in vivo, rat; details: for change in vivo at 1.25 mg/kg / change in vivo at 50 mg/kg: Rattus norvegicus, read-out: Reduction in blood pressure; for change in vivo at 1.25 mg/kg / change in vivo at 50 mg/kg / Reduction in blood pressure: oral; for significant blood pressure lowering activity: ≥-15%; for change in vivo at 50 mg/kg / Reduction in blood pressure: 50 mg/kg
Description: Blood pressure lowering activity of the new compounds according to the invention was tested on spontaneous hypertensive rats (Wistar-Okamoto rats) following the method described in Arzn. Forsch., 6, 222 (1956). Systolic blood pressure of waking animals was measured in arteria caudalis 4, 24, 48 and 72 hours after the oral administration of the test compounds.

tyrosine-hydroxylase = biological target: T2, tyrosine-hydroxylase (Rattus norvegicus, UniProt P04177); assay: In vitro tyrosine-hydroxylase inhibiting activity (TH) on rat adrenal homogenate; assay type: biochemical; details: read-out: Enzyme inhibiting activity, TH; for inhibition at 100 µM: 10^-4 mole/liter; for inhibition at 10 µM: 10^-5 mole/liter
T2 construct: on rat adrenal homogenate; from tissue; host or cells: rat adrenal homogenate
Description: In vitro tyrosine-hydroxylase inhibiting activity (TH inhibiting activity) of the new compounds according to the invention was tested by the method of Nagatsu [Anal. Biochem., 9, 122 (1964)] on rat adrenal homogenate. Radioactive tyrosine was purified by the method elaborated by Ikeda [J. Biol. Chem., 241, 4452 (1966)]. TH activity of the rat adrenal homogenate amounted to […] nmoles/mg protein/60 min.
as §1

[2] = Acute toxicity (LD50) on mice; details: mouse, in vivo, po
mice = assay: Acute toxicity (LD50) on mice; details: i.p.

T2 sequence (P04177 whole entry): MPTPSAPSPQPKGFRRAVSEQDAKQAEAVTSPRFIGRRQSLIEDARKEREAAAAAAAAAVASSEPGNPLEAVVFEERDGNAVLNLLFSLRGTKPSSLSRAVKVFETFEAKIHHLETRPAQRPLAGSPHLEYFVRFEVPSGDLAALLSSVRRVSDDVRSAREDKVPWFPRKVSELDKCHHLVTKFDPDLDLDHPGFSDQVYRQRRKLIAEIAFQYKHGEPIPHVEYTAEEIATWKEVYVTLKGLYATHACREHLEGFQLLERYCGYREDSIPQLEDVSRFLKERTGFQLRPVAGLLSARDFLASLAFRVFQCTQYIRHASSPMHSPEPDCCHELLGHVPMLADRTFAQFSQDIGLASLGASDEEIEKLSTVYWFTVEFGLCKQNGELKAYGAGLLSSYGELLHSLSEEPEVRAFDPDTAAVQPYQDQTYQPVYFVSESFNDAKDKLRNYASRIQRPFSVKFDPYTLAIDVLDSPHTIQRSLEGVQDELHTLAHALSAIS

Row | Compound | inhibition at 100 µM (dopamine-β-hydroxylase) [%] | inhibition at 10 µM (dopamine-β-hydroxylase) [%] | change in vivo at 1.25 mg/kg ([1]; 4 hours) [%] | change in vivo at 1.25 mg/kg ([1]; 24 hours) [%] | significant blood pressure lowering activity [1] [%] | inhibition at 100 µM (tyrosine-hydroxylase) [%] | inhibition at 10 µM (tyrosine-hydroxylase) [%] | LD50 [2] [mg/kg] | change in vivo at 50 mg/kg ([1]; 4 hours) [%] | change in vivo at 50 mg/kg ([1]; 24 hours) [%] | duration of blood pressure lowering effect ([1]; dose 20 mg/kg) [h] | duration of blood pressure lowering effect ([1]; dose of 50 mg/kg) [h] | Reduction in blood pressure ([1]; 4 hours) [%] | Reduction in blood pressure ([1]; 24 hours) [%] | Acute toxicity [LD50] on mice (mice) [mg/kg]
1 | CC(CC(=O)OC(C)(C)C)=NNc1ccc(N2CCOCC2)nn1 [Example 52, 3-(tert.-Butoxycarbonyl)-2-propylidene-3-morpholino-6-pyridazinylhydrazone] | 30 | 0 | -21 | -9 | ≥ -15 | 65 | 40 | 400 |  |  |  |  |  |  | 
2 | O=C(O)C1CCCCC1=NNc1cccnn1 (stereo not shown) [Example 19, 2-carboxy-1-cyclohexylidene-3-pyridazinylhydrazone] | 75 | 10 |  |  |  | 82 | 30 | > 200 | -8 | -9 |  |  |  |  | 
3 | CC(CC(=O)OC(C)(C)C)=NNc1ccc(Cl)nn1 [Example 30, 3-(tert.-Butoxycarbonyl)-2-propylidene-3-chloro-6-pyridazinylhydrazone] | 70 | 22 |  |  | ≥ -15 | 50 | 0 | 250 | -31 | -14 | 48 | 72 |  |  | 
4 | Fumaric acid [reference compound] |  |  |  |  |  |  |  |  |  |  |  |  | -33 | 0 | 80
5 | COC(=O)CC(=NNc1ccc(Cl)nn1)C(=O)OC [Example 64, 1,2-di-(methoxycarbonyl)-ethylidene-(3-chloro-6-pyridazinyl)hydrazone] | 50 | 0 |  |  | ≥ -15 | 36 | 10 | > 200 | -25 | -11 |  |  |  |  | 
6 | CCOC(=O)CC(C)=NNc1ccc(Cl)nn1 [Example 20, 3-(Ethoxycarbonyl)-2-propylidene-(3-chloro-6-pyridazinyl)hydrazone] | 100 | 87 |  |  | ≥ -15 | 100 | 50 | 530 | -25 | -25 |  |  |  |  | 
7 | CCCOC(=O)CC(C)=NNc1ccc(Cl)nn1 [Example 28, 3-(Propoxycarbonyl)-2-propylidene-3-chloro-6-pyridazinylhydrazone] | 90 | 71 |  |  | ≥ -15 | 0 | 0 | > 200 | -29 | -25 |  |  |  |  | 
8 | CCOC(=O)C1CCCCC1=NNc1ccc(Cl)nn1 (stereo not shown) [Example 17, 2-(Ethoxycarbonyl)-1-cyclohexylidene-3-chloro-6-pyridazinylhydrazone] | 70 | 10 |  |  | ≥ -15 | 85 | 33 | 300 | -23 | -13 |  |  |  |  | 
9 | CC(CC(=O)OC(C)C)=NNc1ccc(Cl)nn1 [Example 29, 3-(Isopropoxycarbonyl)-2-propylidene-3-chloro-6-pyridazinylhydrazone] | 70 | 47 |  |  | ≥ -15 | 50 | 0 | 250 | -30 | -15 | 48 | 72 |  |  | 
